This passage reports IC50 results from ChEMBL document CHEMBL4364293, “Design, Synthesis, and Structure-Activity Relationship of 7-Propanamide Benzoxaboroles as Potent Anticancer Agents” (J Med Chem, 2019).

One assay deals with SK-OV-3. As to the kind of experiment: Antiproliferative activity against human SKOV3 cells after 72 hrs by MTT assay. Type of assay: functional, cell-based. To be noted: SK-OV-3, 72 h. A general note: Formazan colour is commonly taken as a measure of viable cells.
A further assay concerns MDA-MB-231. Description: Antiproliferative activity against human MDA-MB-231 cells after 72 hrs by MTT assay. In kind it is functional, cell-based. To be noted: MDA-MB-231, 72 h.
Another assay relates to HCT-116. Description: Antiproliferative activity against human HCT116 cells after 72 hrs by MTT assay. Type of assay: functional, cell-based. The settings on record: HCT-116, 72 h.
The next assay deals with WI-38. Description: Cytotoxicity against human WI38 cells after 72 hrs by MTT assay. Type of assay: cell-based. The settings on record: WI-38, 72 h.

Molecules are shown by their SMILES. Bounds are passed on as bounds.

For the compound `O=C(CCc1cccc2c1B(O)OC2)Nc1nccs1`, the concentration for half-maximal inhibition (IC50) with SK-OV-3, with MDA-MB-231, in the assay with HCT-116 and in the assay with WI-38 was greater than 100 µM each time.
On to `C#Cc1cccc(NC(=O)CCc2cccc3c2B(O)OC3)c1`, for which the IC50 (as a rule, the concentration that gives 50% inhibition) was 0.98 µM in the assay on SK-OV-3, 1.6 µM in the assay with MDA-MB-231, 3.6 µM in the assay on HCT-116 and greater than 100 µM in the assay with WI-38.
With `Cc1ccc(NC(=O)CCc2cccc3c2B(O)OC3)cc1Br`, the IC50 with SK-OV-3 came to 0.6 µM; with MDA-MB-231, 0.87 µM; in the assay on HCT-116, 1.2 µM; in the assay on WI-38, 15 µM.
Turning to `O=C(CCc1cccc2c1B(O)OC2)Nc1cccc(Br)c1`, the 50% inhibitory concentration (IC50) with SK-OV-3 was 0.54 µM; with MDA-MB-231, 0.72 µM; in the assay on HCT-116, 1.4 µM; with WI-38, 20 µM.
For the compound `COc1cc(OC)cc(-c2cccc(NC(=O)CCc3ccc4c(c3)COB4O)c2)c1`, the half-maximal inhibitory concentration (IC50) was 93 µM with SK-OV-3, 77 µM in the assay on MDA-MB-231, 56 µM in the assay with HCT-116 and greater than 100 µM in the assay with WI-38.
For `CCNC(=O)CCc1cccc2c1B(O)OC2` the same measures were greater than 100 µM, greater than 100 µM, greater than 100 µM and greater than 100 µM.
The matching figures for `COc1cccc2c1C(=O)c1c(O)c3c(c(O)c1C2=O)C[C@@](O)(C(=O)CO)C[C@@H]3O[C@H]1C[C@H](N)[C@H](O)[C@H](C)O1` [DOXORUBICIN]: 0.032 µM, 0.0069 µM, 0.023 µM and 0.59 µM.
As for `CSc1ccc(-c2cccc(NC(=O)CCc3cccc4c3B(O)OC4)c2)cc1`, the IC50 was 0.14 µM with SK-OV-3, 0.14 µM in the assay with MDA-MB-231, 0.18 µM in the assay with HCT-116 and 3.8 µM with WI-38.
As to `CC(=O)c1ccc(-c2cccc(NC(=O)CCc3ccc4c(c3)COB4O)c2)cc1`, the IC50 in the assay on SK-OV-3 was 79 µM; in the assay with MDA-MB-231, 66 µM; in the assay with HCT-116 it was 63 µM; in the assay on WI-38, greater than 100 µM.
As to `COc1cc(OC)cc(-c2cccc(NC(=O)CCc3cccc4c3COB4O)c2)c1`, the half-maximal inhibitory concentration (IC50) in the assay with SK-OV-3 is 88 µM; in the assay with MDA-MB-231 it was 93 µM; in the assay with HCT-116, 50 µM; with WI-38, greater than 100 µM.
`N#Cc1cccc(-c2cccc(NC(=O)CCc3cccc4c3B(O)OC4)c2)c1`: the 50% inhibitory concentration (IC50) in the assay on SK-OV-3 was found to be 0.12 µM; in the assay on MDA-MB-231, 0.11 µM; with HCT-116 it was 0.14 µM; with WI-38 it was 7.3 µM.
In the case of `COc1ccc(NC(=O)CCc2cccc3c2B(O)OC3)cc1OC`, the IC50 in the assay on SK-OV-3, with MDA-MB-231, with HCT-116 and in the assay with WI-38 was greater than 100 µM in each case.
As for `O=C(CCc1cccc2c1B(O)OC2)Nc1ccc2ccccc2c1`, the concentration for half-maximal inhibition (IC50) is 1.4 µM in the assay on SK-OV-3, 1.8 µM in the assay with MDA-MB-231, 1.7 µM in the assay with HCT-116 and greater than 100 µM with WI-38.
With `O=C(CCc1cccc2c1B(O)OC2)Nc1ccc(I)cc1`, the IC50 with SK-OV-3 was determined as 51 µM; in the assay on MDA-MB-231, 33 µM; with HCT-116, 50 µM; in the assay on WI-38, 49 µM.
As to `CC(C)c1cccc(NC(=O)CCc2cccc3c2B(O)OC3)c1`, the half-inhibitory concentration (IC50) with SK-OV-3 turned out to be 0.51 µM; in the assay on MDA-MB-231, 1.6 µM; in the assay on HCT-116 it was 1.6 µM; in the assay on WI-38, 22 µM.
For `C#Cc1ccccc1NC(=O)CCc1cccc2c1B(O)OC2`, the half-maximal inhibitory concentration (IC50) in the assay on SK-OV-3 worked out at 0.82 µM; in the assay with MDA-MB-231 it was 1.3 µM; in the assay with HCT-116, 1.4 µM; with WI-38, 18 µM.
For `O=C(CCc1cccc2c1B(O)OC2)Nc1ccc(F)cc1` the same measures were 0.72 µM, 0.44 µM, 0.65 µM and 12 µM.
In the case of `COc1cc(OC)cc(-c2cccc(NC(=O)CCc3ccc4c(c3)B(O)OC4)c2)c1`, the IC50 in the assay on SK-OV-3 is 29 µM; in the assay with MDA-MB-231, 21 µM; with HCT-116, 3.7 µM; in the assay on WI-38, greater than 100 µM.
Take `CC(C)(C)OC(=O)Nc1ccc(NC(=O)CCc2cccc3c2B(O)OC3)cc1`: the 50% inhibitory concentration (IC50) in the assay with SK-OV-3 was greater than 100 µM; with MDA-MB-231, 29 µM; in the assay with HCT-116 it was 24 µM; in the assay with WI-38, greater than 100 µM.
Consider `O=C(CCc1cccc2c1B(O)OC2)NC1CCCCC1`, for which the IC50 in the assay with SK-OV-3, in the assay with MDA-MB-231, in the assay with HCT-116 and in the assay on WI-38 was greater than 100 µM throughout.
With `O=C(CCc1cccc2c1B(O)OC2)Nc1ccc(Br)cc1`, the half-maximal inhibitory concentration (IC50) in the assay on SK-OV-3 was determined as 9.2 µM; in the assay with MDA-MB-231, 5.3 µM; in the assay with HCT-116, 46 µM; with WI-38 it was 42 µM.
As for `CC(=O)c1ccc(-c2cccc(NC(=O)CCc3ccc4c(c3)B(O)OC4)c2)cc1`, the 50% inhibitory concentration (IC50) in the assay on SK-OV-3 is greater than 100 µM; in the assay on MDA-MB-231, 59 µM; with HCT-116, 19 µM; in the assay on WI-38 it was greater than 100 µM.
Consider `CC(=O)c1ccc(-c2cccc(NC(=O)CCc3cccc4c3COB4O)c2)cc1`, for which the 50% inhibitory concentration (IC50) was 57 µM in the assay with SK-OV-3, 41 µM in the assay with MDA-MB-231, 48 µM in the assay with HCT-116 and greater than 100 µM in the assay with WI-38.
The matching figures for `COc1cccc(-c2cccc(NC(=O)CCc3ccc4c(c3)COB4O)c2)c1`: greater than 100 µM, 90 µM, 81 µM and greater than 100 µM.
For `CC(C)(C)c1ccc(NC(=O)CCc2cccc3c2B(O)OC3)cc1` the same measures were 4.2 µM, 33 µM, 19 µM and 55 µM.
For `O=C(CCc1cccc2c1B(O)OC2)Nc1cccc(-c2ccc(Cl)cc2)c1`, the 50% inhibitory concentration (IC50) is 0.22 µM with SK-OV-3, 0.26 µM in the assay with MDA-MB-231, 0.38 µM in the assay with HCT-116 and 9.8 µM in the assay on WI-38.
Turning to `CC(=O)c1cccc(-c2cccc(NC(=O)CCc3cccc4c3B(O)OC4)c2)c1`, the IC50 was 0.068 µM in the assay with SK-OV-3, 0.052 µM in the assay with MDA-MB-231, 0.086 µM in the assay with HCT-116 and 2.2 µM in the assay on WI-38.
`O=C(CCc1cccc2c1B(O)OC2)Nc1ccc(Cl)cc1`: the IC50 in the assay on SK-OV-3 was 5 µM; in the assay with MDA-MB-231 it was 3.6 µM; in the assay with HCT-116 it was 12 µM; in the assay with WI-38, greater than 100 µM.
Take `COc1cc(OC)cc(-c2cccc(NC(=O)CCc3ccccc3)c2)c1`: the IC50 in the assay with SK-OV-3 is greater than 100 µM; in the assay with MDA-MB-231, 87 µM; in the assay on HCT-116 it was greater than 100 µM; in the assay with WI-38 it was greater than 100 µM.
Turning to `COc1cccc(-c2cccc(NC(=O)CCc3ccccc3)c2)c1`, the IC50 in the assay on SK-OV-3 is 24 µM; with MDA-MB-231, 25 µM; in the assay on HCT-116, 40 µM; in the assay with WI-38 it was greater than 100 µM.
For `O=C(/C=C/c1cccc2c1B(O)OC2)Nc1ccccc1` the same measures were greater than 100 µM, greater than 100 µM, greater than 100 µM and greater than 100 µM.
For the compound `CC(=O)c1ccc(-c2cccc(NC(=O)CCc3ccccc3)c2)cc1`, the concentration for half-maximal inhibition (IC50) in the assay on SK-OV-3 worked out at 3.2 µM; with MDA-MB-231, 2.7 µM; in the assay on HCT-116, 4 µM; in the assay with WI-38 it was 13 µM.
For `O=C(CCc1cccc2c1B(O)OC2)Nc1cccc(-c2cccc(C(F)(F)F)c2)c1` the same measures were 0.39 µM, 0.41 µM, 0.58 µM and 23 µM.
